The results in this text go back to the NIST ThermoML archive (doi:10.1016/j.tca.2017.12.024).

The structures appear in SMILES notation. Numbers after ± are expanded uncertainties.

The conditions of data set [1]: Crystal; DTA.
Data set [2] is described as follows: Molar enthalpy of transition or fusion. The conditions noted are these: Crystal; DSC.

On to `CCCCCCCCCC(=O)O` [decanoic acid], for which, in data set [1], the Normal melting temperature came out at 32.00 ± 3 °C. Moreover, the “Molar enthalpy of transition or fusion” value in data set [2] was found to be 25 ± 5 kJ/mol.
On the same counts, the results for `CCCCCCCCCCCC(=O)O` [dodecanoic acid] are 43.60 ± 3 °C and 35.3 ± 7 kJ/mol.
Take `CCCCCCCCCCCCCCCC(=O)O` [hexadecanoic acid]: the Normal melting temperature in data set [1] stood at 61.70 ± 3 °C. In addition, the “Molar enthalpy of transition or fusion” value in data set [2] was 52.8 ± 11 kJ/mol.
On the same counts, the results for `CCCCCCCCCCCCCCCCCC(=O)O` [octadecanoic acid] are 68.40 ± 3 °C and 60 ± 12 kJ/mol.
For `CCCCCCCCCCCCCC(=O)O` [tetradecanoic acid], the Normal melting temperature in data set [1] amounted to 54.70 ± 3 °C. The “Molar enthalpy of transition or fusion” value in data set [2] came to 42.5 ± 8.4 kJ/mol.
